Source: patent US10208056B2, “Condensed tricyclic compounds as protein kinase inhibitors” (FUNDACIÓN DEL SECTOR PÚBLICO ESTATAL CENTRO NACIONAL DE …, priority 2015, dated 2019)

Columns and labels:
[1] = test system: MV4:11; test: In vitro cell proliferation assay (CellTiter-Glo), MV4:11; type: cell-based; conditions: Homo sapiens, MV4-11; growth inhibition, semiquantitative; read-out: GI50 MV4:11
Experimental: (§1) The in vitro potency of the compounds was measured by the cell proliferation assay CellTiter-Glo® Luminescent Cell Viability Assay, commercially available from Promega Corp., Madison, Wis. This homogeneous assay method is based on the recombinant expression of Coleoptera luciferase (U.S. Pat. No. 5,583,024; U.S. Pat. No. 5,674,713; U.S. Pat. No. 5,700,670) and determines the number of viable cells in culture based on quantitation of the ATP present, an indicator of metabolically active cells (Crouch et al (1993) J. Immunol. Meth. 160:81-88; U.S. Pat. No. 6,602,677). The CellTiterGlo® Assay was conducted […] it amenable to automated high throughput screening (HTS) (Cree et al (1995) AntiCancer Drugs 6:398-404).
(§2) The homogeneous assay procedure involves adding the single reagent (CellTiter-Glo® Reagent) directly to cells cultured in serum-supplemented medium. Cell washing, removal of medium and multiple pipetting steps are not required. The system detects as few as 15 cells/well in a 96-well format in 10 minutes after adding reagent and mixing.
(§3) The homogeneous “add-mix-measure” format results in cell lysis and generation of a luminescent signal proportional to the amount of ATP present. The amount of ATP is directly proportional to the number of cells present in culture. The CellTiter-Glo® Assay generates a “glow-type” luminescent signal, produced by the luciferase reaction, which has a half-life generally greater than five hours, depending on cell type and medium used. Viable cells are reflected in relative luminescence units (RLU). The substrate, Beetle Luciferin, is oxidatively decarboxylated by recombinant firefly luciferase with concomitant conversion of ATP to AMP and generation of photons. The extended half-life eliminates the need to use reagent injectors and provides flexibility for continuous or batch mode processing of multiple plates. This cell proliferation assay can be used with various multiwell formats, e.g. 96 or 384 well format. Data can be recorded by luminometer or CCD camera imaging device. The luminescence output is presented as relative light units (RLU), measured over time.

[2] = test system: Molm13; test: In vitro cell proliferation assay (CellTiter-Glo), Molm13; type: cell-based; conditions: Homo sapiens, MOLM-13; growth inhibition, semiquantitative; read-out: GI50 Molm13
Experimental: as §1, §2, §3

[3] = biological target: CDK19/Cyclin C (Homo sapiens (Human), UniProt Q9BWU1); test: CDK19/Cyclin C binding assay (LanthaScreen Eu-Kinase Binding Assay); conditions: read-out: CDK19-CYCC IC50
CDK19/Cyclin C, sequence (Q9BWU1 whole entry): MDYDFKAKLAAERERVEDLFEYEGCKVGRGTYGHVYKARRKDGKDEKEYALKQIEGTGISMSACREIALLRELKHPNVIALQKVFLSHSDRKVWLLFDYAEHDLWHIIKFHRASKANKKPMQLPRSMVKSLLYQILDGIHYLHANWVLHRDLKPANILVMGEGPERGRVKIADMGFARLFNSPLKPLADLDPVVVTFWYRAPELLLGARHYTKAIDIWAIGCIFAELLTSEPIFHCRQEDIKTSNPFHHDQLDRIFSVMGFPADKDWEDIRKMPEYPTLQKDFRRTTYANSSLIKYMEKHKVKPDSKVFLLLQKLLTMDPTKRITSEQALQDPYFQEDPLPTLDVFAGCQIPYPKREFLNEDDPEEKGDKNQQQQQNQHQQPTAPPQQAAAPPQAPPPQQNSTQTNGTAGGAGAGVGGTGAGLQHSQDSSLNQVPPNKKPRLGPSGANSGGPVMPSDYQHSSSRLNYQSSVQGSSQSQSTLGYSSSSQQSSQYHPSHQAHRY
CDK19/Cyclin C, sequence (P24863 whole entry partner): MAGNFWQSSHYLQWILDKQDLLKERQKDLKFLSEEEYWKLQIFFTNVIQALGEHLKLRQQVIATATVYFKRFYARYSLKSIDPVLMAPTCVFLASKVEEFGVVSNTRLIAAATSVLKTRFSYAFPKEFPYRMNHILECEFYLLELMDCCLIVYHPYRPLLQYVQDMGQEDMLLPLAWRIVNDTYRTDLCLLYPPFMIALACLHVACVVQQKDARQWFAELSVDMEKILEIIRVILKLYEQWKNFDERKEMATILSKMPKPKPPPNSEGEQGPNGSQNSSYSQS
Experimental: The binding assay relies on the LanthaScreen™ Eu-Kinase Binding Assay (Invitrogen).
Assay conditions were as indicated by the kit manufacturers with the following adaptations: • Assay buffer: 50 mM HEPES, pH 7.5, 1 mM EGTA, 0.01% Brij-35, 10 mM MgCl2 • Assay volume: 20 μl • Incubation time and temperature: 60 min at 25° C. • Cdk19-Cyclin C concentration: 2 nM • Tracer concentration: 20 nM • (Eu)-labelled anti-GST antibody concentration: 2 nM • Tested compound: Serial 1:3 dilutions • Final DMSO concentration in the assay: 1%
(§4) Assays were performed in 384-well plates. The final read out was generated using an EnVision plate reader (Perkin-Elmer).

[4] = biological target: T1, intracellular CDK8 (Homo sapiens (Human), UniProt P49336); test: Cellular CDK8 inhibition assay, western blot P-STAT1 (S727) in IFN-γ treated SW620 cells; type: cell-based; conditions: SW620, IFNγ treated, semiquantitative; read-out: SW620 P-STAT1(S727) w IFNγ
T1 sequence (P49336 whole entry): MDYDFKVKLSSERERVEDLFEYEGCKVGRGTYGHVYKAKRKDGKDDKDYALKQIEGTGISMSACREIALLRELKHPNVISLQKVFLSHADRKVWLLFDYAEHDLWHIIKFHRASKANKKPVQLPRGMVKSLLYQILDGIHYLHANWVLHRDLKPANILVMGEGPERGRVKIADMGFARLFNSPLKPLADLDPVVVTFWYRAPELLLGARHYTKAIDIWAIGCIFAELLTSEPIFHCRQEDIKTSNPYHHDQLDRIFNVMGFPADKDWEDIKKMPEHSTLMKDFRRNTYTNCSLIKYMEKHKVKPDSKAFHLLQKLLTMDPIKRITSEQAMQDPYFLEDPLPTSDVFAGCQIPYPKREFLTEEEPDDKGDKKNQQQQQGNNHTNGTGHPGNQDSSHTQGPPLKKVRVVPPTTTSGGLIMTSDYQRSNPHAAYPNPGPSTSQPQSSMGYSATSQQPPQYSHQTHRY
T1 sequence (P24863 whole entry partner): as the sequence (P24863 whole entry partner) above
T1 sequence (Q93074 whole entry partner): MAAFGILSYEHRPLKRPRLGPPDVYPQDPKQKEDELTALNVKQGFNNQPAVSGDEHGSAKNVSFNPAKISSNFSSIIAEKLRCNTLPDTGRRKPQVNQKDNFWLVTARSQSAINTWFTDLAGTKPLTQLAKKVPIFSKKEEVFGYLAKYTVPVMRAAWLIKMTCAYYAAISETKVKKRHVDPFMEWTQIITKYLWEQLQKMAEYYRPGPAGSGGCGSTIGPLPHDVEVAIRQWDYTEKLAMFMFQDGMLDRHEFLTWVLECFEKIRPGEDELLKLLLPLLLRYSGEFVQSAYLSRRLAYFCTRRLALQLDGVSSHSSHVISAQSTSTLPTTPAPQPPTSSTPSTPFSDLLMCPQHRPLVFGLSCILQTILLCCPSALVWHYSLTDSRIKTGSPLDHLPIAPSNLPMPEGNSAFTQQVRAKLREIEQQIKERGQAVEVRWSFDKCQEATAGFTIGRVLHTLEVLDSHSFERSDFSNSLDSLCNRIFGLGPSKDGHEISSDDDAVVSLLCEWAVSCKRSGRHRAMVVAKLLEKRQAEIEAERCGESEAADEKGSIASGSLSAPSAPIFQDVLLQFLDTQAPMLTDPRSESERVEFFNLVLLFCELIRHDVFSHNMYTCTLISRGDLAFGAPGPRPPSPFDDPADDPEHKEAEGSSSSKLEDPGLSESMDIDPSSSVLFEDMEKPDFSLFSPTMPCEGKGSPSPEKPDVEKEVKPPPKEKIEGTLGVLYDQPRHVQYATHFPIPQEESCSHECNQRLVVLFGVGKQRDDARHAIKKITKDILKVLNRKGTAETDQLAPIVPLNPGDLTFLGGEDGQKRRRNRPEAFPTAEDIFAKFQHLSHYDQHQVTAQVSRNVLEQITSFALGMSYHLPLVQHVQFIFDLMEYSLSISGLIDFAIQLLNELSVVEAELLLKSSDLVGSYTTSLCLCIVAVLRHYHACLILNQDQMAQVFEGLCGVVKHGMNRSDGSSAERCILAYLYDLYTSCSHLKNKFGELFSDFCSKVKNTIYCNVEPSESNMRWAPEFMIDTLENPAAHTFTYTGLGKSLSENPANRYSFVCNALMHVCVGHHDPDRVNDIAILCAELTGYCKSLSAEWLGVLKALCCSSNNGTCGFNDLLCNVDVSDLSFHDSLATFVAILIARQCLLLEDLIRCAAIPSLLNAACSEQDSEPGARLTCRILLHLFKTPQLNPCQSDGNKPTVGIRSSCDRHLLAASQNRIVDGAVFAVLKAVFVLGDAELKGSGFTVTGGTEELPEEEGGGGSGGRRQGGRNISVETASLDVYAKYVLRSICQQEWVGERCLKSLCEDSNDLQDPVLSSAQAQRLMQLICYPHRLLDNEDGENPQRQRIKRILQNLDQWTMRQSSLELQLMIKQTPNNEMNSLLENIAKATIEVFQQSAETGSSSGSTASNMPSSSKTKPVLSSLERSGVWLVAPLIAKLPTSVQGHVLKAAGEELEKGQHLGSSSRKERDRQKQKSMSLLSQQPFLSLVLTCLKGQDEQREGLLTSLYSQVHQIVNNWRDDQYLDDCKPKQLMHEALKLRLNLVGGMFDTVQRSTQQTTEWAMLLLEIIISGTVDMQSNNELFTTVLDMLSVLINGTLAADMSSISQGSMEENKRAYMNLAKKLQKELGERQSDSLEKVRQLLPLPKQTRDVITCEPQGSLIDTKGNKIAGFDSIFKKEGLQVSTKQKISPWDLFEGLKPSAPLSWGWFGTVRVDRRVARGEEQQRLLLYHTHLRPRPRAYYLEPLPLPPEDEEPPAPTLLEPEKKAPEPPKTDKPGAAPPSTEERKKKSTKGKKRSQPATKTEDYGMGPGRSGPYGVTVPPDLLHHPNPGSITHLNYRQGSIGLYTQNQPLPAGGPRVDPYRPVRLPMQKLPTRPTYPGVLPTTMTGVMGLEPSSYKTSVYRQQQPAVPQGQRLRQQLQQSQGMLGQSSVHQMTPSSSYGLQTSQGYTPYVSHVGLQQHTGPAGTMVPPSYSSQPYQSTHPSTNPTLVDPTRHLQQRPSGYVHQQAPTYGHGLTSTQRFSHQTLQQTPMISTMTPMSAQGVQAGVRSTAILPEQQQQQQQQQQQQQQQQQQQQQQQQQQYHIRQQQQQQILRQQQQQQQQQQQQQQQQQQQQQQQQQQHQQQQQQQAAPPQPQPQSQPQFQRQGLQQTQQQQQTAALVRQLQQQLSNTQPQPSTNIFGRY
Experimental: Compounds can be screened for their ability to inhibit intracellular CDK8 using a western blot assay to detect phosphorylation of the CDK8 substrate STAT1 (S727) in IFN-γ treated cells. SW620 cells are plated at 1*10^6 cells per well in 6-well plates (Solmeglas 13118) in RPMI media (Sigma-Aldrich R6504) supplemented with 10% foetal bovine serum (Sigma-Aldrich F7524), Penicillin/Streptomycin solution diluted 1:100 (Gibco 15070-063), and fungizone (Gibco, 15290-018), and allowed to adhere overnight at 37° C. in 5% CO2. Compounds are then added to the cell media from a final concentration of 10 μM in 10-fold serial dilutions and the cells are incubated at 37° C. in 5% CO2. After 1 hour, IFNγ (R&D systems Ref. RYD-285-IF-100) is added to a final concentration of […]. After 3 hours of treatment with IFNγ, the cells are washed in PBS, lysed adding 100 μl of protein lysis buffer (62.5 mM Tris pH 6.8 al 6.25%, 2% SDS y 10% glycerol) incubation 10 minutes at room temperature and heating at 95° C. 10 min. The protein content of the lysates is determined by DC protein assay (Biorad, Ref. 5000116). The proteins are resolved by SDS-PAGE and transferred to nitrocellulose membrane (VWR International eurolab, Ref. 732-4007). The membranes are incubated overnight at 4° C. with antibodies specific for total STAT1 (BD Transduction laboratory #610115), phosphoserine-727 STAT1 (Cell Signaling Ref. 9177) they are washed and then incubated with IRDye800 conjugated anti-mouse (Pierce/Cultek, 35521) and Alexa Fluor 680 goat anti-rabbit IgG secondary antibodies (Invitrogen, A21076). The bands are visualized and quantified using an Odyssey infrared imaging system (Li-Cor Biosciences). The percentage of phosphorylated STAT1 vs total STAT1 in cells treated with IFNγ is taken as hundred percent of phosphorylation. The percentage of STAT1 phosphorylation is finally plotted against concentration for each compound and EC50s for intracellular CDK8 inhibition are calculated using ActivityBase from IDBS.

[5] = test system: MDA-MB-231; test: In vitro cell proliferation assay (CellTiter-Glo), MDA-MB-231; type: cell-based; conditions: Homo sapiens, MDA-MB-231; growth inhibition, semiquantitative; read-out: GI50 MDA-MB-231
Experimental: as §1, §2, §3

[6] = biological target: CDK8/Cyclin C (Homo sapiens (Human), UniProt P49336); test: CDK8/Cyclin C binding assay (LanthaScreen Eu-Kinase Binding Assay); conditions: binding assay
CDK8/Cyclin C, sequence (P49336 whole entry): as the sequence (P49336 whole entry) above
CDK8/Cyclin C, sequence (P24863 whole entry partner): as the sequence (P24863 whole entry partner) above
Experimental: The enzyme has been purchase from Invitrogen (PV4402) as a dimer of full-length His-tagged recombinant human proteins.
as §4

[7] = test system: SW620; test: In vitro cell proliferation assay (CellTiter-Glo), SW620; type: cell-based, human; conditions: Homo sapiens, SW-620; growth inhibition, semiquantitative; read-out: GI50 SW620
Experimental: as §1, §2, §3

[8] = test system: DU145; test: Combination assay, DU145; type: cell-based; conditions: Homo sapiens, DU-145; DU145, chemotherapeutic alone; read-out: Chemo GI50
Experimental: (§5) The combination index (CI) of combinations of certain example compounds and various chemotherapeutic agents in the CellTitetI-Glo® in vitro cell proliferation assays may be tested. A combination index score is calculated by the Chou and Talalay method (CalcuSyn software, Biosoft). The strength of synergy is scored using the ranking system Chou and Talalay: CI less than 0.8 indicates synergy, CI between 0.8 and 1.2 indicates additivity and CI greater than 1.2 indicates antagonism.
The EC50 values of representative combinations are also calculated. The individually measured EC50 values of the chemotherapeutic agent and the example compounds are compared to the EC50 value of the combination. The cell lines are characterised by tumor type. […] Blanco-Aparicio, Carmen; Collazo, Ana Maria Garcia; Oyarzabal, Julen; Leal, Juan F.; Albaran, Maria Isabel; Lima, Francisco Ramos; Pequeno, Belen; Ajenjo, Nuria; Becerra, Mercedes; Alfonso, Patricia; Reymundo, Maria Isabel; Palacios, Irene; Mateos, Genoveva; Quinones, Helena; Corrionero, Ana; Carnero, Amancio; Pevarello, Paolo; Lopez, Ana Rodriguez; Fominaya, Jesus; Pastor, Joaquin; Bischoff, James R. Cancer Letters (Shannon, Ireland) 2011, 300(2), 145-153

[9] = test system: HCT116; test: Combination assay, HCT116; type: cell-based; conditions: Homo sapiens, HCT-116; HCT116, chemotherapeutic alone; read-out: Chemo GI50
Experimental: as §5
(§6) The EC50 values of representative combinations are also calculated. The individually measured EC50 values of the chemotherapeutic agent and the example compounds are compared to the EC50 value of the combination. The cell lines are characterised by tumor type. Combination assays are performed as described in: “Pim 1 kinase inhibitor ETP-45299 suppresses cellular proliferation and synergizes with PI3K inhibition”. Blanco-Aparicio, Carmen; Collazo, Ana Maria Garcia; Oyarzabal, Julen; Leal, Juan F.; Albaran, Maria Isabel; Lima, Francisco Ramos; Pequeno, Belen; Ajenjo, Nuria; Becerra, Mercedes; Alfonso, Patricia; Reymundo, Maria Isabel; Palacios, Irene; Mateos, Genoveva; Quinones, Helena; Corrionero, Ana; Carnero, Amancio; Pevarello, Paolo; Lopez, Ana Rodriguez; Fominaya, Jesus; Pastor, Joaquin; Bischoff, James R. Cancer Letters (Shannon, Ireland) 2011, 300(2), 145-153

[10] = test system: SW620; test: Combination assay, SW620; type: cell-based, human; conditions: Homo sapiens, SW-620; SW620, chemotherapeutic alone; read-out: Chemo GI50
Experimental: as §5, §6

[11] = biological target: Haspin kinase (Homo sapiens (Human), UniProt Q8TF76); test: Haspin kinase assay (ADP-Glo); type: biochemical; conditions: ATP 150 μM
Haspin kinase, sequence (Q8TF76 484-798): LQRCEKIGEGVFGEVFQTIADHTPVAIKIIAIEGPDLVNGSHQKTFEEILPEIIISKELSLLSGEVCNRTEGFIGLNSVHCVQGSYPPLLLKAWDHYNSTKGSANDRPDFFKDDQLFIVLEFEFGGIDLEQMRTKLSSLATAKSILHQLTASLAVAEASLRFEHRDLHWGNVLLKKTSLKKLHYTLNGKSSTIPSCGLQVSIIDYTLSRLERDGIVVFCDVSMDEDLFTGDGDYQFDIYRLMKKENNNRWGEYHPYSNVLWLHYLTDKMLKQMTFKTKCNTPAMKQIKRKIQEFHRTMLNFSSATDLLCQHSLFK
Source text: The kinase assay relies on ADP-Glo^KM biochemical kinase assay (Promega). This is a luminescent kinase assay that measures ADP formed from a kinase reaction. Then ADP is converted into ATP, which is transformed into a light signal by Ultra-Glo™ Luciferase. The luminescent signal positively correlates with kinase activity. The assay measures the intrinsic ATPase activity (in the absence of peptidic substrate as phosphate acceptor).
The enzyme was purchase from Invitrogen (PV5708) as the kinase domain of GST tagged recombinant human proteins.
Assay conditions were as indicated by the kit manufacturers with the following adaptations: • Assay buffer: 15 mM HEPES pH 7.4, 20 mM NaCl, 1 mM EGTA, 0.02% Tween 20, 10 mM MgCl2, 0.1 mg/ml BGG • Assay volume: 20 μl • Incubation time and temperature: 60 min at 30° C. • Haspin concentration: 20 nM • ATP concentration: 150 μM • Tested compound: Serial 1:3 dilutions • Final DMSO concentration in the assay: 1%
Assays were performed in 384-well plates. The final read out was generated using an EnVision plate reader (Perkin-Elmer). Luminescent relative units are normalized against the control activity included for each compound (i.e., 100% Haspin activity, without compound) and the percentage of inhibition is calculated.

[12] = biological target: T1, intracellular CDK8; test: Endogenous phosphoSTAT1 inhibition in SW620 cells growing in 10% FBS; type: cell-based; conditions: semiquantitative, read-out: SW620 P-STAT1(S727)
Experimental: Endogenous phosphoSTAT1 inhibition can be screened in cells growing in 10% FBS. Cells are plated as described before and treated for 8 h with compounds as described before. Then cells are lysated and phospho STAT1 is evaluated as described before. The percentage of phosphorylated STAT1 vs total STAT1 in cells treated with DMSO is taken as hundred percent of phosphorylation. The percentage of STAT1 phosphorylation is finally plotted against concentration for each compound and EC50s for intracellular CDK8 inhibition are calculated using ActivityBase from IDBS.

| GI50 [1] [nM] | GI50 [2] [nM] | IC50 [3] [nM] | EC50 [4] [nM] | GI50 [5] [nM] | IC50 [6] [nM] | GI50 [7] [nM] | GI50 [8] [nM] | GI50 [9] [nM] | GI50 [10] [nM] | IC50 [11] [nM] | EC50 [12] [nM] | Compound |
| --- | --- | --- | --- | --- | --- | --- | --- | --- | --- | --- | --- | --- |
| < 1000 | < 1000 | 87.3 | < 500 | 1000 to 10000 | 19.3 | < 1000 |  |  |  |  |  | NC(=O)c1cc2c([nH]1)-c1ccncc1O[C@@H]2C1CCCCC1 (single isomer, unassigned) [Example 69] |
|  |  |  |  |  |  |  | 12500 | 12500 | 500 |  |  | COc1cc(Nc2ncc3c(n2)-c2ccc(Cl)cc2C(c2c(F)cccc2OC)=NC3)ccc1C(=O)O [Alisertib, alisertib, reference compound] |
| < 1000 | 1000 to 10000 | 0.48 |  | 1000 to 10000 | 4.33 | 1000 to 10000 |  |  |  | 34.5 | < 500 | CC1(C)Oc2cnccc2-c2[nH]c(C(N)=O)c(C3CC3)c21 [Example 86] |
|  |  |  |  |  |  |  |  | 5 | 5 |  |  | CC(=O)O[C@H]1C(=O)[C@@]2(C)[C@H]([C@H](OC(=O)c3ccccc3)[C@]3(O)C[C@H](OC(=O)[C@H](O)[C@@H](NC(=O)c4ccccc4)c4ccccc4)C(C)=C1C3(C)C)[C@]1(OC(C)=O)CO[C@@H]1C[C@@H]2O [Taxol, paclitaxel, reference compound] |
